# Data reported in patent US5466809A (Toronto Research Chemicals, Inc., priority 1994, dated 1995).
# Values joined by “and” are separate entries in the source; they are usually repeats but may differ in a detail not shown here. Equal entries are not always repeated. Where two headings read alike, the source gives them in different places.
# Experiments:
# [1] = system: N-linked oligosaccharide processing; assay: L-PHA lectin sensitivity assay for inhibition of N-linked oligosaccharide processing; assay type: cell-based
# Experimental: This test also indicates whether the compounds enter tumor cells and measures the degree of toxicity of the compounds for cells. The test is described in J. W. Dennis, Cancer Research 46:5131, 1986.
# Essentially, 2×10^4 cells are placed in individual wells of a 96-well microtest plate, wherein the wells contain serial dilutions of the compounds to be tested. […] […] The cells are then harvested and the amount of radioactivity incorporated into the host cell DNA is measured in a liquid scintillation counter. The amount of radioactivity present in cells in wells in the absence of L-PHA reflects the toxicity of the test compound and the amount of radioactivity present in the presence of L-PHA reflects the level of inhibition of oligosaccharide processing induced by the test compound.
# [2] = molecular target: T1, Jack Bean alpha-mannosidase (Canavalia ensiformis, UniProt C0HJB3); assay: Jack Bean alpha-mannosidase assay; assay type: biochemical; settings: pH 6.0, 37° C., 30 minutes, p-nitrophenyl-alpha-D-mannopyranoside substrate; read-out: D50 Values (Inhibition), J.B. mannosidase (converted)
# T1 sequence (C0HJB3 1-981): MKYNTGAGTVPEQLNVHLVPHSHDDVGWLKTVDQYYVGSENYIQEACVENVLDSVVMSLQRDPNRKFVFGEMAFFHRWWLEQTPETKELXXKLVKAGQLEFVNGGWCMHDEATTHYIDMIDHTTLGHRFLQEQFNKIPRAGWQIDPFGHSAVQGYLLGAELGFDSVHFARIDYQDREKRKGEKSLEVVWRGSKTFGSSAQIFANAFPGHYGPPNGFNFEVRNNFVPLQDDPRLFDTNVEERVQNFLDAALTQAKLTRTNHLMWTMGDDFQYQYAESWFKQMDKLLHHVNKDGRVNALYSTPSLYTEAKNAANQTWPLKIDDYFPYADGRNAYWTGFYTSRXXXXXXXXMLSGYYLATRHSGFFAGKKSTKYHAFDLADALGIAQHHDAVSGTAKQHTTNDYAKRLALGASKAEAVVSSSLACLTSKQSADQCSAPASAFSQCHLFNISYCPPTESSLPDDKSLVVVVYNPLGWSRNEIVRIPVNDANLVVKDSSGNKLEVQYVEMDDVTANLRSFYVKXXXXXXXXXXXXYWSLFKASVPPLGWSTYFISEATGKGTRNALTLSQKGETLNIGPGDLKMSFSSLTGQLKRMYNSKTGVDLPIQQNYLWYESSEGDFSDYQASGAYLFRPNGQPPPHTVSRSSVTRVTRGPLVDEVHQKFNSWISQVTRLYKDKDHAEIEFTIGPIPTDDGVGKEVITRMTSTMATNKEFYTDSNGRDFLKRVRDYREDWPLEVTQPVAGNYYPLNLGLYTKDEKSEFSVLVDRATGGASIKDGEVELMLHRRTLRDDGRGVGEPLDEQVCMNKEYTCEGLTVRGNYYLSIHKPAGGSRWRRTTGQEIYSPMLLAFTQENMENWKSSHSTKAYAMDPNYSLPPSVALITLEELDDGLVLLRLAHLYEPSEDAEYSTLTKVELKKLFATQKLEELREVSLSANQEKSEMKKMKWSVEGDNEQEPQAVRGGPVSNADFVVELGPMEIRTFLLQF
# Experimental: Jack Bean alpha-Mannosidase Assay. […] A volume (37.5 ul) of 0.05M sodium acetate (pH 6.0) was added to each well, followed by 37.5 ul of 0.01M p-nitrophenyl-alpha-D-mannopyanoside, and then 10 ul of a 1:400 dilution of Jack Bean alpha-mannosidase. After thoroughly shaking to mix, the mixture was incubated at 37° C. for 30 minutes. The reaction was stopped by the addition of 150 ul of 0.5M sodium carbonate (pH 10.0). The absorbance at 405 nm of the solution in the wells was determined in an ELISA plate reader.
# bone marrow cells [3] = assay: In vivo bone marrow CFU formation and bone marrow cellularity, dose dependent effect; design: species or system C57BL/6 mice; settings: for Mean of CFU Formation / Mean of Cellularity: 4 days; for Effect on bone marrow cellularity and CFU formation (summary) / Effect on bone marrow cellularity and CFU formation compared with swainsonine (summary) / optimal dose: summary of experiments; for Effect on bone marrow cellularity and CFU formation compared with swainsonine (summary): for 3 and 23 versus 10 μg swainsonine
# Text: (§1) Assay for Bone Marrow Cell Proliferation Induced by Swansonine Analogues. Pathogen-free C57BL/6 mice at 8-14 weeks of age were quarantined for one week prior to their use in the experiments described below. Mice were inoculated intraperitoneally twice daily with a designated dose of swainsonine or an analogue of swainsonine for a period of four days. Eighteen hours following the last injection, the mice were sacrificed, bone marrow cells were obtained using standard technology (S. C. White et al., J. Natl. Cancer Inst. 83 1125, 1991). Cellularity of the bone marrow cells so obtained was determined by directly counting the cells after they were flushed from the femurs and tibia of the mice. The cells were processed according to the procedure described in the GIBCO-BRL Mouse Bone Stem Cell Proliferation Kit, and the number of colony forming units (CFU) was assessed using the procedures also described in the kit. For kinetic experiments, mice were administered 10 ug of the analogue (this was the optimum dose in all cases) twice daily for the designated number of days. The experiments were designed so that all regimens terminated on the same day. Eighteen hours after the last injection, the mice were sacrificed and bone marrow cells were obtained and processed as described above.
# bone marrow cells [4] = assay: In vivo bone marrow CFU formation and cellularity, time course (kinetic experiments); design: species or system C57BL/6 mice; settings: 10 μg twice daily i.p.
# Text: as §1
# [5] = L-PHA assay, 3H-thymidine incorporation, read-out: D50 Values (Inhibition), L-PHA assay
# [6] = Expt. 1, 10 μg twice daily i.p.
# [7] = Expt. 1, 20 μg twice daily i.p.
Compound,"IC50 [1, 5] [µg/mL]",IC50 [2] [µM],"Mean of CFU Formation (bone marrow cells [3]; Expt. 1, 5 μg twice daily i.p.) [CFU]","Mean of Cellularity (bone marrow cells [3]; Expt. 1, 5 μg twice daily i.p.)",Mean of CFU Formation (bone marrow cells [3]; [6]),Mean of Cellularity (bone marrow cells [3]; [6]),Mean of CFU Formation (bone marrow cells [3]; [7]) [CFU],Mean of Cellularity (bone marrow cells [3]; [7]),Effect on bone marrow cellularity and CFU formation (summary) (bone marrow cells [3]),Effect on bone marrow cellularity and CFU formation compared with swainsonine (summary) (bone marrow cells [3]),other results
"CCCCCCCC(=O)O[C@@H]1CN2CCC[C@@H](O)[C@@H]2[C@@H]1O [Compound 6, 1S-8a-β-2-alpha-octanoyloxyoctahydroindolizine-1-alpha-8-β-diol]",0.066,117,200,2.57 × 10^7,437 CFU,3.83 × 10^7,295,2.73 × 10^7,Stimulates CFU and cellularity,not approximating swainsonine,Mean of CFU Formation (bone marrow cells [4]; 1 day): 250 CFU; Mean of Cellularity (bone marrow cells [4]; 1 day): 3.56 × 10^7; Mean of CFU Formation (bone marrow cells [4]; 2 days): 432 CFU; Mean of Cellularity (bone marrow cells [4]; 2 days): 4.63 × 10^7; Mean of CFU Formation (bone marrow cells [4]; 3 days): 550 CFU; Mean of Cellularity (bone marrow cells [4]; 3 days): 5.88 × 10^7; Mean of CFU Formation (bone marrow cells [4]; 4 days): 618 CFU; Mean of Cellularity (bone marrow cells [4]; 4 days): 7.63 × 10^7; Mean of CFU Formation (bone marrow cells [4]; 5 days): 614 CFU; Mean of Cellularity (bone marrow cells [4]; 5 days): 6.25 × 10^7; Mean of CFU Formation (bone marrow cells [4]; 6 days): 488 CFU; Mean of Cellularity (bone marrow cells [4]; 6 days): 5.38 × 10^7
"O=C1N[C@@H]2[C@@H](O)[C@@H](O)[C@H](O)[C@@H](CO)N2C1=O [Kefunensine, reference compound]",1,151,–,–,–,–,–,–,–,–,–
"O=C(O[C@@H]1CN2CCC[C@@H](O)[C@@H]2[C@@H]1O)c1ccc([N+](=O)[O-])cc1 [Compound 42, 1S-8a-β-2-alpha-p-nitorbenzoyloxyoctahydroindolizine-1-alpha-8-β-diol]",0.066,109,213,2.68 × 10^7,373 CFU,3.21 × 10^7,242,2.63 × 10^7,Stimulates CFU & cellularity,–,–
"O[C@H]1[C@H]2[C@H](O)CCCN2C[C@H]1O [swainsonine, 1S-8a-β-octahydroindolizine-1-alpha-2-alpha-8-β-triol, reference compound]",0.033,–,–,–,550 CFU and 446 CFU,5.86 × 10^7 and 3.73 × 10^7,–,–,–,–,"IC50 ([1]; 30 ug/ml L-PHA, read-out: I50): ~0.02 µg/mL and ~100 nM; Mean of Cellularity (bone marrow cells [3]; Expt. 2, 10 μg twice daily i.p.): 5.76 × 10^7"
"CCCC(=O)O[C@@H]1CN2CCC[C@@H](O)[C@@H]2[C@@H]1O [Compound 3, 1S-8a-β-2-alpha-butanoyloxyoctahydroindolizine-1-alpha-8-β-diol]",0.066,144,–,–,–,–,–,–,–,comparable to,"amount of radioactivity incorporated by cells ([1]; 3H-thymidine incorporation, compared with swainsonine): comparable to that of swainsonine; optimal dose (bone marrow cells [3]): 10 µg"
"O[C@@H]1[C@H](O)[C@H](O)CN2C[C@@H](O)[C@@H](O)[C@@H]12 [Compound 36, 1S-1-alpha-2-alpha-6β,7β-8β-pentahydroxy-8a-β-octahydroindolizine]",–,–,291,2.28 × 10^7,545 CFU,5.27 × 10^7,327,2.59 × 10^7,–,–,–
"Cc1ccc(C(=O)O[C@@H]2CN3CCC[C@@H](O)[C@@H]3[C@@H]2O)cc1 [Compound 41, 1S-8a-β-2-alpha-p-toluoyloxyoctahydroindolizine-1-alpha-8-β-diol]",1,343,195,2.22 × 10^7,359 CFU,2.99 × 10^7,214,2.14 × 10^7,Stimulates CFU & cellularity,–,–
"CCOC1CC(=O)N2C[C@@H](O)[C@@H](O)[C@H]2[C@@H]1O (stereo partly drawn) [Compound 23, 7-ethoxy-(1S,2R,8R,8aR)-1,2,8-trihydroxy-octahydro-5-oxyindolizine]",> 1,43.2,–,–,–,–,–,–,–,comparable to,optimal dose (bone marrow cells [3]): 10 µg
